Source: patent publication US12552811B2, “Immunosuppressant, and preparation method therefor and use thereof” (Abbisko Therapeutics Co., Ltd., priority 2020, dated 2026)

Experiment: Jurkat reporter gene cellular assay
Type: cell-based
Conditions: Homo sapiens; Jurkat/NF-κB-luc/PD1 + Raji-PD-L1 coculture, OKT3 1 μg/mL, 6 hrs, activation fold; read-out: Cell Activity EC50
Description: The effect of compounds of the examples of the present invention and positive compounds on the interaction between PD-1 and PD-L1 expressed on cell surfaces, and the related influence on T cell functions, were determined by a Jurkat reporter gene cellular assay.
Briefly, the reporter gene plasmid of NF-κB-luc and the plasmid of human PD-1 were transfected into Jurkat cells to establish a stably transfected cell line capable of stably expressing both PD-1 and NF-κB-Luc reporter genes; the expression level of PD-1 on the cell surface was confirmed by flow cytometry; and the expression of the reporter gene was confirmed via the response of the reporter gene stimulated by OKT-3 and Raiji cells.
In addition, the plasmid of human PD-L1 was transfected into Raji cells to obtain a cell line capable of stably expressing PD-L1. Jurkat/NF-κB-luc/PD1 cells and Raji-PD-L1 cells were then cocultured and stimulated with OKT-3. On this basis, the compounds were added, and the enhancement of the signal pathway of T cell activation by the inhibitory effect of the compounds on the interaction between PD-1 and PD-L1 was evaluated by readings of reporter gene responses. The specific experimental process was as follows: • 1) 30 μL of compound or antibody solution was added to each well of a white 96-well plate (coming, 3610) at different diluted concentrations, and 10 μL of OKT3 (Biolegend, 317326) was then added (the final concentration of OKT3: 1 μg/mL); • 2) 20 μL of Raji-PD-L1 cell suspension was added to each well with 5*10^4 cells for each well, and was incubated in an incubator for 20 min: • 3) 20 μL of Jurkat/NF-κb-luc/PD-1 cell suspension was added to each well with 5*10^4 cells for each well, and well mixed, and 6 hrs later, Bright-glo (Promega, E2620) was applied and plates were read on Envision; • 4) The reading of each well treated with the compound was compared with the reading of each well treated with DMSO to obtain the activation fold of the compound; • 5) EC50 values of compounds and positive compounds of the examples of the present invention were determined by non-linear regression analysis of activation folds at different compound concentrations.

Row | Compound | EC50 [nM]
1 | Cn1c(C(=O)Nc2cccc(-c3cccc(NC(=O)c4cc5c(cn4)CN(C4CCC4)CC5)c3Cl)c2Cl)nc2c1CCN(CCC13CCC(C(=O)O)(CC1)C3)C2 [Example 5, 4-(2-(2-((2,2′-dichloro-3′-(7-cyclobutyl-5,6,7,8-tetrahydro-2,7-naphthyridine-3-carboxamido)-[1,1′-biphenyl]-3-yl)carbamoyl)-1-methyl-1,4,6,7-tetrahydro-5H-imidazo[4,5-c]pyridin-5-yl)ethyl)bicyclo [2.2.1]heptane-1-carboxylic acid] | 108
2 | C[C@@H](O)CN1CCc2cc(C(=O)Nc3cccc(-c4cccc(NC(=O)c5nc6c(n5C)CCN(CCC57CCC(C(=O)O)(CC5)C7)C6)c4Cl)c3Cl)ncc2C1 [Example 8, (R)-4-(2-(2-((2,2′-dichloro-3′-(7-(2-hydroxypropyl)-5,6,7,8-tetrahydro-2,7-naphthyridine-3-carboxamido)-[1,1′-biphenyl]-3-yl)carbamoyl)-1-methyl-1,4,6,7-tetrahydro-5H-imidazo[4,5-c]pyridin-5-yl)ethyl)bicyclo[2.2.1]heptane-1-carboxylic acid] | 59.8
3 | Cn1c(C(=O)Nc2cccc(-c3cccc(NC(=O)c4cc5c(cn4)CN(CCCO)CC5)c3Cl)c2Cl)nc2c1CCN(CCC13CCC(C(=O)O)(CC1)C3)C2 [Example 9, 4-(2-(2-((2,2′-dichloro-3′-(7-(3-hydroxypropyl)-5,6,7,8-tetrahydro-2,7-naphthyridine-3-carboxamido)-[1,1′-biphenyl]-3-yl)carbamoyl)-1-methyl-1,4,6,7-tetrahydro-5H-imidazo[4,5-c]pyridin-5-yl)ethyl) bicyclo[2.2.1]heptane-1-carboxylic acid] | 177
4 | Cn1c(C(=O)Nc2cccc(-c3cccc(NC(=O)c4cc5c(cn4)CN([C@H]4CC[C@@H](O)CC4)CC5)c3Cl)c2Cl)nc2c1CCN(CCC13CCC(C(=O)O)(CC1)C3)C2 [Example 12, 4-(2-(2-((2,2′-dichloro-3′-(7-((1S,4S)-4-hydroxycyclohexyl)-5,6,7,8-tetrahydro-2,7-naphthyridine-3-carboxamido)-[1,1′-biphenyl]-3-yl)carbamoyl)-1-methyl-1,4,6,7-tetrahydro-5H-imidazo[4,5-c]pyridin-5-yl)ethyl)bicyclo[2.2.1]heptane-1-carboxylic acid] | 114
5 | Cn1c(C(=O)Nc2cccc(-c3cccc(NC(=O)c4cc5c(cn4)CN(CCC(C)(C)O)CC5)c3Cl)c2Cl)nc2c1CCN(CCC13CCC(C(=O)O)(CC1)C3)C2 [Example 13, 4-(2-(2-((2,2′-dichloro-3′-(7-(3-hydroxy-3-methylbutyl)-5,6,7,8-tetrahydro-2,7-naphthyridine-3-carboxamido)-[1,1′-biphenyl]-3-yl)carbamoyl)-1-methyl-1,4,6,7-tetrahydro-5H-imidazo[4,5-c]pyridin-5-yl)ethyl)bicyclo[2.2.1]heptane-1-carboxylic acid] | 78.9
6 | CN(C)C(=O)CCCCN1CCc2cc(C(=O)Nc3cccc(-c4cccc(NC(=O)c5nc6c(n5C)CCN(CCC57CCC(C(=O)O)(CC5)C7)C6)c4Cl)c3Cl)ncc2C1 [Example 16, 4-(2-(2-((2,2′-dichloro-3′-(7-(5-(dimethylamino)-5-oxopentyl)-5,6,7,8-tetrahydro-2,7-naphthyridine-3-carboxamido)-[1,1′-biphenyl]-3-yl)carbamoyl)-1-methyl-1,4,6,7-tetrahydro-5H-imidazo[4,5-c]pyridin-5-yl)ethyl)bicyclo[2.2.1]heptane-1-carboxylic acid] | 83.5
7 | CC(C)N1CCc2cc(C(=O)Nc3cccc(-c4cccc(NC(=O)c5nc6c(n5C)CCN(CCC57CCC(C(=O)O)(CC5)C7)C6)c4Cl)c3Cl)ncc2C1C (stereo not shown) [Example 18, 4-(2-(2-((2,2′-dichloro-3′-(7-isopropyl-8-methyl-5,6,7,8-tetrahydro-2,7-naphthyridine-3-carboxamido)-[1,1′-biphenyl]-3-yl)carbamoyl)-1-methyl-1,4,6,7-tetrahydro-5H-imidazo[4,5-c]pyridin-5-yl)ethyl) bicyclo[2.2.1]heptane-1-carboxylic acid] | 90.7
8 | CC(C)N1CCc2cc(C(=O)Nc3cccc(-c4cccc(NC(=O)c5nc6c(n5C)CCN(CC57CCC(C(=O)O)(CC5)C7)C6)c4Cl)c3Cl)ncc2C1 [Example 19, 4-((2-((2,2′-dichloro-3′-(7-isopropyl-5,6,7,8-tetrahydro-2,7-naphthyridine-3-carboxamido)-[1,1′-biphenyl]-3-yl)carbamoyl)-1-methyl-1,4,6,7-tetrahydro-5H-imidazo[4,5-c]pyridin-5-yl)methyl)bicyclo[2.2.1] heptane-1-carboxylic acid] | 58.8
9 | CC(C)N1CCc2cc(C(=O)Nc3cccc(-c4cccc(NC(=O)c5nc6c(n5C)CCN(CC[C@H]5CC[C@H](C(=O)O)CC5)C6)c4Cl)c3Cl)ncc2C1 [Example 23, (1R,4R)-4-(2-(2-((2,2′-dichloro-3′-(7-isopropyl-5,6,7,8-tetrahydro-2,7-naphthyridine-3-carboxamido)-[1,1′-biphenyl]-3-yl)carbamoyl)-1-methyl-1,4,6,7-tetrahydro-5H-imidazo[4,5-c]pyridin-5-yl)ethyl) cyclohexane-1-carboxylic acid] | 60.7
10 | Cn1c(C(=O)Nc2cccc(-c3cccc(NC(=O)c4cc5c(cn4)CN([C@H]4CCC[C@@H]4O)CC5)c3Cl)c2Cl)nc2c1CCN(CCC13CCC(C(=O)O)(CC1)C3)C2 [Example 61, 4-(2-(2-((2,2′-dichloro-3′-(7-((1S,2S)-2-hydroxycyclopentyl)-5,6,7,8-tetrahydro-2,7-naphthyridine-3-carboxamido)-[1,1′-biphenyl]-3-yl)carbamoyl)-1-methyl-1,4,6,7-tetrahydro-5H-imidazo[4,5-c]pyridin-5-yl)ethyl)bicyclo[2.2.1]heptane-1-carboxylic acid] | 83.2
11 | Cn1c(C(=O)Nc2cccc(-c3cccc(NC(=O)c4cc5c(cn4)CN(CC4(O)CC4)CC5)c3Cl)c2Cl)nc2c1CCN(CCC13CCC(C(=O)O)(CC1)C3)C2 [Example 62, 4-(2-(2-((2,2′-dichloro-3′-(7-((1-hydroxycyclopropyl)methyl)-5,6,7,8-tetrahydro-2,7-naphthyridine-3-carboxamido)-[1,1′-biphenyl]-3-yl)carbamoyl)-1-methyl-1,4,6,7-tetrahydro-5H-imidazo[4,5-c]pyridin-5-yl)ethyl)bicyclo[2.2.1]heptane-1-carboxylic acid] | 76.3
12 | Cn1c(C(=O)Nc2cccc(-c3cccc(NC(=O)c4cc5c(cn4)CN([C@H]4CC[C@H](O)CC4)CC5)c3Cl)c2Cl)nc2c1CCN(CCC13CCC(C(=O)O)(CC1)C3)C2 [Example 63, 4-(2-(2-((2,2′-dichloro-3′-(7-((1R,4R)-4-hydroxycyclohexyl)-5,6,7,8-tetrahydro-2,7-naphthyridine-3-carboxamido)-[1,1′-biphenyl]-3-yl)carbamoyl)-1-methyl-1,4,6,7-tetrahydro-5H-imidazo[4,5-c]pyridin-5-yl)ethyl)bicyclo[2.2.1]heptane-1-carboxylic acid] | 104
13 | Cn1c(C(=O)Nc2cccc(-c3cccc(NC(=O)c4cc5c(cn4)CN(C4CCCC4)CC5)c3Cl)c2Cl)nc2c1CCN(CCC13CCC(C(=O)O)(CC1)C3)C2 [Example 64, 4-(2-(2-((2,2′-dichloro-3′-(7-cyclopentyl-5,6,7,8-tetrahydro-2,7-naphthyridine-3-carboxamido)-[1,1′-biphenyl]-3-yl)carbamoyl)-1-methyl-1,4,6,7-tetrahydro-5H-imidazo[4,5-c]pyridin-5-yl)ethyl)bicyclo [2.2.1]heptane-1-carboxylic acid] | 155
14 | Cn1c(C(=O)Nc2cccc(-c3cccc(NC(=O)c4cc5c(cn4)CN(C4CCC(C)(C(=O)O)CC4)CC5)c3Cl)c2Cl)nc2c1CCN(CCC13CCC(C(=O)O)(CC1)C3)C2 (stereo not shown) [Example 65, 4-(2-(2-((3′-(7-(4-carboxy-4-methylcyclohexyl)-5,6,7,8-tetrahydro-2,7-naphthyridine-3-carboxamido)-2,2′-dichloro-[1,1′-biphenyl]-3-yl)carbamoyl)-1-methyl-1,4,6,7-tetrahydro-5H-imidazo[4,5-c]pyridin-5-yl)ethyl)bicyclo[2.2.1]heptane-1-carboxylic acid] | 122
15 | CC(C)N1CCc2cc(C(=O)Nc3cccc(-c4cccc(NC(=O)c5cc6c(cn5)CN(C(C)C)CC6)c4Cl)c3Cl)ncc2C1 [Example 66] | > 10000
16 | CC(C)N1CCc2cc(C(=O)Nc3cccc(-c4cccc(NC(=O)c5cc6c(cn5)CN(CCC57CCC(C(=O)O)(CC5)C7)CC6)c4Cl)c3Cl)ncc2C1 [Example 67, 4-(2-(6-((2,2′-dichloro-3′-(7-isopropyl-5,6,7,8-tetrahydro-2,7-naphthyridine-3-carboxamido)-[1,1′-biphenyl]-3-yl)carbamoyl)-3,4-dihydro-2,7-naphthyridin-2(1H)-yl)ethyl)bicycio[2.2.1]heptane-1-carboxylic acid] | 1660
